Laboratory results reported in the supplement of paper PMC10307832.

Key:
Assay in all cases: relative viability (nuclei count vs DMSO), 5 days (fraction); higher = more cells survive
201T = tested on: 201T
In short: (§1)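 Relative viability was taken as the ratio of nuclei in treated wells to nuclei in vehicle wells. Lung cancer cell lines in 1536-well plates received compounds by pin tool one day after seeding, either one drug alone or a fixed anchor-drug dose plus five library-drug doses (not always all listed) in √10 steps. Nuclei were counted on 4× images after 5 days of treatment, and values are medians of duplicate plates.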

NCI-H2009 = tested on: NCI-H2009
In short: as §1

LOU-NH91 = tested on: LOU-NH91
In short: as §1

NCI-H1755 = tested on: NCI-H1755
In short: as §1

HCC-44 = tested on: HCC-44
In short: as §1

NCI-H1650 = tested on: NCI-H1650
In short: as §1

NCI-H1734 = tested on: NCI-H1734
In short: as §1

NCI-H1355 = tested on: NCI-H1355
In short: as §1

LK-2 = tested on: LK-2
In short: as §1

NCI-H2228 = tested on: NCI-H2228
In short: as §1

NCI-H727 = tested on: NCI-H727
In short: as §1

HCC-78 = tested on: HCC-78
In short: as §1

BEN = tested on: BEN
In short: as §1

ABC-1 = tested on: ABC-1
In short: as §1

NCI-H358 = tested on: NCI-H358
In short: as §1

NCI-H1666 = tested on: NCI-H1666
In short: as §1

HCC-366 = tested on: HCC-366
In short: as §1

UMC-11 = tested on: UMC-11
In short: as §1

SW 1573 = tested on: SW 1573
In short: as §1

NCI-H2347 = tested on: NCI-H2347
In short: as §1

NCI-H838 = tested on: NCI-H838
In short: as §1

NCI-H2405 = tested on: NCI-H2405
In short: as §1

NCI-H520 = tested on: NCI-H520
In short: as §1

## O=C(O)CCCCC(CCSCc1ccccc1)SCc1ccccc1 (centres undefined) [CPI-613] + Cc1cc(Nc2cc(N3CCN(C)CC3)nc(Sc3ccc(NC(=O)C4CC4)cc3)n2)n[nH]1 [Tozasertib] (partner 0.1 µM)
201T; first compound 5 µM
  relative viability: 0.913
201T; first compound 15.81 µM
  relative viability: 0.846
201T; first compound 50 µM
  relative viability: 0.8
201T; first compound 158.11 µM
  relative viability: 0.443
201T; first compound 500 µM
  relative viability: 0.209
NCI-H2009; first compound 5 µM
  relative viability: 0.67
NCI-H2009; first compound 15.81 µM
  relative viability: 0.696
NCI-H2009; first compound 50 µM
  relative viability: 0.699
NCI-H2009; first compound 158.11 µM
  relative viability: 0.136
NCI-H2009; first compound 500 µM
  relative viability: 0.0212
LOU-NH91; first compound 5 µM
  relative viability: 0.651
LOU-NH91; first compound 15.81 µM
  relative viability: 0.611
LOU-NH91; first compound 50 µM
  relative viability: 0.62
LOU-NH91; first compound 158.11 µM
  relative viability: 0.684
LOU-NH91; first compound 500 µM
  relative viability: 0.643
NCI-H1755; first compound 5 µM
  relative viability: 0.558
NCI-H1755; first compound 15.81 µM
  relative viability: 0.52
NCI-H1755; first compound 50 µM
  relative viability: 0.581
NCI-H1755; first compound 158.11 µM
  relative viability: 0.402
NCI-H1755; first compound 500 µM
  relative viability: 0.356
HCC-44; first compound 5 µM
  relative viability: 0.936
HCC-44; first compound 15.81 µM
  relative viability: 0.845
HCC-44; first compound 50 µM
  relative viability: 0.969
HCC-44; first compound 158.11 µM
  relative viability: 0.322
HCC-44; first compound 500 µM
  relative viability: 0.0777
NCI-H1650; first compound 5 µM
  relative viability: 0.441
NCI-H1650; first compound 15.81 µM
  relative viability: 0.321
NCI-H1650; first compound 50 µM
  relative viability: 0.417
NCI-H1650; first compound 158.11 µM
  relative viability: 0.0645
NCI-H1650; first compound 500 µM
  relative viability: 0.0151
NCI-H1734; first compound 5 µM
  relative viability: 0.235
NCI-H1734; first compound 15.81 µM
  relative viability: 0.24
NCI-H1734; first compound 50 µM
  relative viability: 0.291
NCI-H1734; first compound 158.11 µM
  relative viability: 0.152
NCI-H1734; first compound 500 µM
  relative viability: 0.118
NCI-H1355; first compound 5 µM
  relative viability: 0.541
NCI-H1355; first compound 15.81 µM
  relative viability: 0.512
NCI-H1355; first compound 50 µM
  relative viability: 0.508
NCI-H1355; first compound 158.11 µM
  relative viability: 0.314
NCI-H1355; first compound 500 µM
  relative viability: 0.112
LK-2; first compound 5 µM
  relative viability: 0.173
LK-2; first compound 15.81 µM
  relative viability: 0.162
LK-2; first compound 50 µM
  relative viability: 0.189
LK-2; first compound 158.11 µM
  relative viability: 0.181
LK-2; first compound 500 µM
  relative viability: 0.139
NCI-H2228; first compound 5 µM
  relative viability: 0.304
NCI-H2228; first compound 15.81 µM
  relative viability: 0.204
NCI-H2228; first compound 50 µM
  relative viability: 0.236
NCI-H2228; first compound 158.11 µM
  relative viability: 0.146
NCI-H2228; first compound 500 µM
  relative viability: 0.112
NCI-H727; first compound 5 µM
  relative viability: 0.557
NCI-H727; first compound 15.81 µM
  relative viability: 0.697
NCI-H727; first compound 50 µM
  relative viability: 0.685
NCI-H727; first compound 158.11 µM
  relative viability: 0.369
NCI-H727; first compound 500 µM
  relative viability: 0.455
HCC-78; first compound 5 µM
  relative viability: 0.46
HCC-78; first compound 15.81 µM
  relative viability: 0.402
HCC-78; first compound 50 µM
  relative viability: 0.408
HCC-78; first compound 158.11 µM
  relative viability: 0.433
HCC-78; first compound 500 µM
  relative viability: 0.405
BEN; first compound 5 µM
  relative viability: 0.532
BEN; first compound 15.81 µM
  relative viability: 0.47
BEN; first compound 50 µM
  relative viability: 0.495
BEN; first compound 158.11 µM
  relative viability: 0.535
BEN; first compound 500 µM
  relative viability: 0.408
ABC-1; first compound 5 µM
  relative viability: 0.215
ABC-1; first compound 15.81 µM
  relative viability: 0.189
ABC-1; first compound 50 µM
  relative viability: 0.189
ABC-1; first compound 158.11 µM
  relative viability: 0.179
ABC-1; first compound 500 µM
  relative viability: 0.207
NCI-H358; first compound 15.81 µM
  relative viability: 0.113
NCI-H358; first compound 50 µM
  relative viability: 0.0981
NCI-H358; first compound 158.11 µM
  relative viability: 0.0576
NCI-H358; first compound 500 µM
  relative viability: 0.0347
NCI-H1666; first compound 5 µM
  relative viability: 0.558
NCI-H1666; first compound 15.81 µM
  relative viability: 0.634
NCI-H1666; first compound 50 µM
  relative viability: 0.614
NCI-H1666; first compound 158.11 µM
  relative viability: 0.233
NCI-H1666; first compound 500 µM
  relative viability: 0.155
HCC-366; first compound 5 µM
  relative viability: 0.0925
HCC-366; first compound 15.81 µM
  relative viability: 0.33
HCC-366; first compound 50 µM
  relative viability: 0.156
HCC-366; first compound 158.11 µM
  relative viability: 0.0259
HCC-366; first compound 500 µM
  relative viability: 0.0032
UMC-11; first compound 5 µM
  relative viability: 0.189
UMC-11; first compound 15.81 µM
  relative viability: 0.195
UMC-11; first compound 50 µM
  relative viability: 0.183
UMC-11; first compound 158.11 µM
  relative viability: 0.127
UMC-11; first compound 500 µM
  relative viability: 0.116
SW 1573; first compound 5 µM
  relative viability: 0.232
SW 1573; first compound 15.81 µM
  relative viability: 0.196
SW 1573; first compound 50 µM
  relative viability: 0.15
SW 1573; first compound 158.11 µM
  relative viability: 0.103
SW 1573; first compound 500 µM
  relative viability: 0.0651
NCI-H2347; first compound 5 µM
  relative viability: 0.526
NCI-H2347; first compound 15.81 µM
  relative viability: 0.561
NCI-H2347; first compound 50 µM
  relative viability: 0.566
NCI-H2347; first compound 158.11 µM
  relative viability: 0.552
NCI-H2347; first compound 500 µM
  relative viability: 0.524
NCI-H838; first compound 5 µM
  relative viability: 0.271
NCI-H838; first compound 15.81 µM
  relative viability: 0.252
NCI-H838; first compound 50 µM
  relative viability: 0.249
NCI-H838; first compound 158.11 µM
  relative viability: 0.194
NCI-H838; first compound 500 µM
  relative viability: 0.104
NCI-H2405; first compound 5 µM
  relative viability: 0.75
NCI-H2405; first compound 15.81 µM
  relative viability: 0.616
NCI-H2405; first compound 50 µM
  relative viability: 0.625
NCI-H2405; first compound 158.11 µM
  relative viability: 0.554
NCI-H2405; first compound 500 µM
  relative viability: 0.533
NCI-H520; first compound 5 µM
  relative viability: 0.42
NCI-H520; first compound 15.81 µM
  relative viability: 0.378
NCI-H520; first compound 50 µM
  relative viability: 0.352
NCI-H520; first compound 158.11 µM
  relative viability: 0.48
NCI-H520; first compound 500 µM
  relative viability: 0.375
